This passage reports Kd results from publication PMC3759356 (Cancer cell, 2013).

pKd: −log10 of the molar value.

The target of this test is T1, BARD1 (Homo sapiens, UniProt Q99728).
T1 sequence (Q99728 568-777 limits assumed): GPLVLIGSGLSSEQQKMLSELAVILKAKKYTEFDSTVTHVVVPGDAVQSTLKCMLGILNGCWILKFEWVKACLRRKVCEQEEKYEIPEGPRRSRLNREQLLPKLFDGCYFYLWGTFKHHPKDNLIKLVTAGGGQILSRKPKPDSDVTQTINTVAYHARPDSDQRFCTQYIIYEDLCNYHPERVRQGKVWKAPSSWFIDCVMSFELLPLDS
Nature of the test: ITC. The class given is binding.

Consider `Nc1ncnc2c1ncn2[C@@H]1O[C@H](COP(=O)(O)OP(=O)(O)OC[C@H]2OC(O)[C@H](O)[C@@H]2O)[C@@H](O)[C@H]1O` (stereo partly shown) [ADP-ribose], for which the pKd (commonly −log10 of the Kd, conventionally taken in molar units) was roughly 6.60.
